This note sets out measurements from patent publication US9447028B2, “Therapeutic aryl-amido-aryl compounds and their use” (King's College London, priority 2009, dated 2016).

SMILES strings stand for the structures.

Holding throughout (type): cell-based
The target in one test is T1, RARα (Homo sapiens, UniProt P10276).
T1 construct: gal4 (fusion partner); expressed in transfected cells; host or cells: COS-7
T1 sequence (P10276 183-417 limits assumed): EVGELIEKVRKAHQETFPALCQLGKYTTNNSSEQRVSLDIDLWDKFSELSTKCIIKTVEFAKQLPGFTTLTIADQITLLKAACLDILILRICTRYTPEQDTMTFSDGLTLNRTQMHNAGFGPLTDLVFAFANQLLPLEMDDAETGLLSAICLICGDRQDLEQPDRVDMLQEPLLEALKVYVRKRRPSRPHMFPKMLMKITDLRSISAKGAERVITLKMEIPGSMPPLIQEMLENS
Put plainly: Transactivation assay for RAR alpha (gal4-RAR fusion, luciferase reporter, COS-7 cells). The following applies: for RARα/RARβ ratio (*): fold-selectivity for RARα over RARβ; for RARα activity ratio: ratio of test compound EC50 to that of atRA on the same plate. The protocol: (§1) Transcriptional transactivation assays were performed with gal4 fusion receptor constructs, created using each of the RAR ligand binding domains, co-transfected with the pFR-luc (Stratagene™) reporter construct in COS-7 cells.
(§2) Briefly, on day 1, 96 well plates were seeded with 8000 cells per well then left to recover overnight. On day 2, the cells were co-transfected with 100 ng of reporter plasmid and 10 ng of the appropriate receptor plasmid per well using lipofectamine (Invitrogen™). On day 3, the lipofectamine containing media was replaced by a DMEM without phenol red, followed by the addition of test compound dissolved in 1 μL of DMSO to each well's 100 μL total volume. Finally, on day 4, the cells were lysed and their luciferase substrate was provided by the BrightGlo™ reagent (Promega™), the plates were then read on the MicroBeta TriLux™ (Perkin Elmer™).
(§3) Where replicate data has been generated, the data are quoted as a ratio of the mean EC50 from the separate experiments.
(In general: In a reporter assay the amount or activity of a reporter protein is the signal.)

The target of the next test is T2, RARβ (Homo sapiens, UniProt P10826).
T2 construct: gal4 (fusion partner); expressed in transfected cells; host or cells: COS-7
T2 sequence (P10826 183-417 limits assumed): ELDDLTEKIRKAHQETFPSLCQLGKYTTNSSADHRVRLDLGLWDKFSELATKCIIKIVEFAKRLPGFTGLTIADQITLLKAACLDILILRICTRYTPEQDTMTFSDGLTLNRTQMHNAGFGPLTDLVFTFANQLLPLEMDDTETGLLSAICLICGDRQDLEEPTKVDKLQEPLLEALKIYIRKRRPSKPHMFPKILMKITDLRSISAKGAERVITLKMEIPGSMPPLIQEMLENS
In words: Transactivation assay for RAR beta (gal4-RAR fusion, luciferase reporter, COS-7 cells). As to conditions: ratio of test compound EC50 to that of atRA; inactive = no agonist action at the highest concentration tested. As for the experimental part: as §1, §2, §3

For a further test, the target named is T3, RARγ (Homo sapiens, UniProt P13631).
T3 construct: gal4 (fusion partner); expressed in transfected cells; host or cells: COS-7
T3 sequence (P13631 185-419 limits assumed): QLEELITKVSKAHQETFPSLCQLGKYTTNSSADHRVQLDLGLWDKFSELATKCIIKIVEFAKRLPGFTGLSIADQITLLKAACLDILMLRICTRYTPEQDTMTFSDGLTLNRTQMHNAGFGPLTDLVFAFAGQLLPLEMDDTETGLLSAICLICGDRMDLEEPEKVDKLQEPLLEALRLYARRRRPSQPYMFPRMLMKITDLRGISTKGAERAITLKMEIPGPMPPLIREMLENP
In words: Transactivation assay for RAR gamma (gal4-RAR fusion, luciferase reporter, COS-7 cells). The following applies: ratio of test compound EC50 to that of atRA; inactive = no agonist action at the highest concentration tested. The protocol:
as §1, §2, §3

Consider `Cc1cc(NC(=O)c2cc(Cl)c(OC(C)(C)C)c(OC(C)(C)C)c2)ccc1C(=O)O` [AAA-049, 4-(3,4-Di-tert-butoxy-5-chlorobenzamido)-2-methylbenzoic acid], for which, at RARα, the “RARα/RARβ ratio (*)” value is 13200 and the RARα activity ratio is 0.64. The RARβ activity ratio at RARβ came out at 8460. Further, the RARγ activity ratio on RARγ is reported as 82.
For the compound `Cc1cc(NC(=O)c2cc(Cl)c(OC(C)C)c(OC(C)C)c2)ccc1C(=O)O` [AAA-051, 4-(3-Chloro-4,5-diisopropoxybenzamido)-2-methylbenzoic acid], at RARα, the “RARα/RARβ ratio (*)” value turned out to be 45 and the RARα activity ratio is recorded as 0.97. The RARβ activity ratio at RARβ is given as 43. For the same compound, the RARγ activity ratio at RARγ is reported as 2859.
Take `Cc1cc(NC(=O)c2cc(Br)c(OC(C)C)c(Br)c2)ccc1C(=O)O` [AAA-052, 4-(3,5-Dibromo-4-isopropoxybenzamido)-2-methylbenzoic acid]: on RARα, the “RARα/RARβ ratio (*)” value stood at 84 and the RARα activity ratio came to 0.25. The RARβ activity ratio at RARβ is 21. In addition, the RARγ activity ratio at RARγ turned out to be 1923.
For `CCOc1c(Br)cc(C(=O)Nc2ccc(C(=O)O)c(C)c2)cc1Br` [AAA-053, 4-(3,5-Dibromo-4-ethoxybenzamido)-2-methylbenzoic acid] the same measures were 336, 4.2, 1410 and 414.
Taken in the same sequence, the figures for `Cc1cc(NC(=O)c2cc(Cl)c(OC3CCCC3)c(Cl)c2)ccc1C(=O)O` [AAA-054, 4-(3,5-Dichloro-4-(cyclopentyloxy)benzamido)-2-methylbenzoic acid] were 36, 0.59, 21 and 51.
Taken in the same sequence, the figures for `COc1c(Cl)cc(C(=O)Nc2ccc(C(=O)O)c(C)c2)cc1Cl` [AAA-055, 4-(3,5-Dichloro-4-methoxybenzamido)-2-methylbenzoic acid] were 107, 18, 1926 and 69000.
For the compound `Cc1cc(NC(=O)c2cc(Cl)c(OC(C)(C)C)c(Cl)c2)ccc1C(=O)O` [AAA-056, 4-(4-tert-Butoxy-3,5-dichlorobenzamido)-2-methylbenzoic acid], on RARα, the “RARα/RARβ ratio (*)” value is more than 250 and the RARα activity ratio is on record as 3.1. For the same compound, the RARβ activity ratio at RARβ is more than 770. The RARγ activity ratio on RARγ is reported as 22.
`CCOc1c(Cl)cc(C(=O)Nc2ccc(C(=O)O)c(O)c2)cc1Cl` [AAA-057, 4-(3,5-Dichloro-4-ethoxybenzamido)-2-hydroxybenzoic acid]: on RARα, the “RARα/RARβ ratio (*)” value turned out to be 37 and the RARα activity ratio is on record as 33. Besides, the RARβ activity ratio at RARβ is reported as 1226. Further, the RARγ activity ratio on RARγ is 4920.
For `CCOc1c(OC2CCCC2)cc(C(=O)Nc2ccc(C(=O)O)cc2)cc1OC1CCCC1` [AAA-058, 4-(3,5-Bis(cyclopentyloxy)-4-ethoxybenzamido)benzoic acid] the same measures were 145, 29, 4200 and 550.
Take `CC(C)Oc1cc(C(=O)Nc2ccc(C(=O)O)cc2)cc(OC(C)C)c1OC(C)C` [AAA-059, 4-(3,4,5-Triisopropoxybenzamido)benzoic acid]: on RARα, the “RARα/RARβ ratio (*)” value was found to be 96 and the RARα activity ratio is 27. The RARβ activity ratio on RARβ worked out at 2600. Further, at RARγ, the RARγ activity ratio was 225.
As to `CC(C)(C)Oc1cc(C(=O)Nc2ccc(C(=O)O)cc2)cc(OC(C)(C)C)c1OC(C)(C)C` [AAA-060, 4-(3,4,5-Tri-tert-butoxybenzamido)benzoic acid], on RARα, the “RARα/RARβ ratio (*)” value is given as 50 and the RARα activity ratio amounted to 45. Moreover, at RARβ, the RARβ activity ratio is recorded as 2267. On RARγ, the RARγ activity ratio was 30.
Consider `CCOc1c(OC(C)C)cc(C(=O)Nc2ccc(C(=O)O)c(C)c2)cc1OC(C)C` [AAA-061, 4-(4-Ethoxy-3,5-diisopropoxybenzamido)-2-methylbenzoic acid], for which, on RARα, the “RARα/RARβ ratio (*)” value turned out to be 118 and the RARα activity ratio is 44. In addition, on RARβ, the RARβ activity ratio is recorded as 5200. Further, at RARγ, the RARγ activity ratio was 1531.
Take `COc1c(OC(C)C)cc(C(=O)Nc2ccc(C(=O)O)cc2)cc1OC(C)C` [AAA-062, 4-(3,5-Diisopropoxy-4-methoxybenzamido)benzoic acid]: at RARα, the “RARα/RARβ ratio (*)” value came to 8 and the RARα activity ratio was determined as 85. The RARβ activity ratio on RARβ is reported as 714. Also, the RARγ activity ratio at RARγ is 5328.
For the compound `COc1c(OC(C)C)cc(C(=O)Nc2ccc(C(=O)O)c(C)c2)cc1OC(C)C` [AAA-063, 4-(3,5-Diisopropoxy-4-methoxybenzamido)-2-methylbenzoic acid], on RARα, the “RARα/RARβ ratio (*)” value came out at 22 and the RARα activity ratio amounted to 76. For the same compound, the RARβ activity ratio on RARβ is reported as 1686. Besides, the RARγ activity ratio at RARγ is recorded as 6429.
In the case of `CCOc1c(OC(C)C)cc(C(=O)Nc2ccc(C(=O)O)c(F)c2)cc1OC(C)C` [AAA-064, 4-(3,5-Diisopropoxy-4-ethoxybenzamido)-2-fluorobenzoic acid], on RARα, the “RARα/RARβ ratio (*)” value is more than 40 and the RARα activity ratio was 81. Besides, at RARβ, the RARβ activity ratio is recorded as more than 3500. Further, the RARγ activity ratio at RARγ is listed as 1977.
Taken in the same sequence, the figures for `COc1c(Cl)cc(C(=O)Nc2ccc(C(=O)O)cn2)cc1C(F)(F)F` [AAA-065, 6-(3-Chloro-4-methoxy-5-(trifluoromethyl)benzamido)nicotinic acid] were 9, 15, 140 and 3521.
As for `COc1c(Cl)cc(C(=O)Nc2ccc(C(=O)O)cc2F)cc1C(F)(F)F` [AAA-067, 4-(3-Chloro-4-methoxy-5-(trifluoromethyl)benzamido)-3-fluorobenzoic acid], at RARα, the “RARα/RARβ ratio (*)” value is given as 6 and the RARα activity ratio stood at 50. Besides, at RARβ, the RARβ activity ratio worked out at 279. For the same compound, at RARγ, the RARγ activity ratio is 6047.
Taken in the same sequence, the figures for `CCOc1c(Cl)cc(C(=O)Nc2ccc(C(=O)O)c(F)c2)cc1C(F)(F)F` [AAA-068, 4-(3-Chloro-4-ethoxy-5-(trifluoromethyl)benzamido)-2-fluorobenzoic acid] were 140, 7, 976 and 60833.
For `CC(C)Oc1c(Cl)cc(C(=O)Nc2ccc(C(=O)O)c(F)c2)cc1C(F)(F)F` [AAA-069, 4-(3-Chloro-4-isopropoxy-5-(trifluoromethyl)benzamido)-2-fluorobenzoic acid] the same measures were 421, 1.2, 505 and 3380.
In the case of `COc1c(Cl)cc(C(=O)Nc2ccc(C(=O)O)c(O)c2)cc1C(F)(F)F` [AAA-070, 4-(3-Chloro-4-methoxy-5-(trifluoromethyl)benzamido)-2-hydroxybenzoic acid], at RARα, the “RARα/RARβ ratio (*)” value was 701 and the RARα activity ratio worked out at 3.4. The RARβ activity ratio at RARβ turned out to be 2386. Further, at RARγ, the RARγ activity ratio is more than 62500.
For `CCOc1c(Br)cc(C(=O)Nc2ccc(C(=O)O)c(C)c2)cc1C(F)(F)F` [AAA-071, 4-(3-Bromo-4-ethoxy-5-(trifluoromethyl)benzamido)-2-methylbenzoic acid] the same measures were 31, 5.2, 160 and 13333.
As to `CCOc1c(F)cc(C(=O)Nc2ccc(C(=O)O)cc2)cc1F` [AAA-073, 4-(4-Ethoxy-3,5-difluorobenzamido)benzoic acid], at RARα, the “RARα/RARβ ratio (*)” value was 6 and the RARα activity ratio stood at 19. The RARβ activity ratio on RARβ stood at 117. In addition, the RARγ activity ratio at RARγ is given as 220.
